Data published in patent US20240246942A1, “KINASE INHIBITORS FOR THE TREATMENT OF NEURODEGENERATIVE DISEASES” (priority 2020, published 2024).

Legend:
Assay in all cases: biochemical
[1] = biological target: T1, panel of 374 wild-type kinases (Homo sapiens, UniProt O75582); conditions: read-out: % Enzyme Activity (relative to DMSO controls), MSK1/RPS6KA5
T1 construct: purchased Reaction Biology Corporation

[2] = biological target: T2, panel of 374 wild-type kinases (Homo sapiens, UniProt P22607); conditions: read-out: % Enzyme Activity (relative to DMSO controls), FGFR3
T2 construct: purchased Reaction Biology Corporation

[3] = biological target: T3, panel of 374 wild-type kinases (Homo sapiens, UniProt P31751); conditions: read-out: % Enzyme Activity (relative to DMSO controls), AKT2
T3 construct: purchased Reaction Biology Corporation

[4] = biological target: T4, panel of 374 wild-type kinases (Homo sapiens, UniProt P51957); conditions: read-out: % Enzyme Activity (relative to DMSO controls), NEK4
T4 construct: purchased Reaction Biology Corporation

[5] = biological target: T5, panel of 374 wild-type kinases (Homo sapiens, UniProt P54753); conditions: read-out: % Enzyme Activity (relative to DMSO controls), EPHB3
T5 construct: purchased Reaction Biology Corporation
T5 sequence (P54753 34-998): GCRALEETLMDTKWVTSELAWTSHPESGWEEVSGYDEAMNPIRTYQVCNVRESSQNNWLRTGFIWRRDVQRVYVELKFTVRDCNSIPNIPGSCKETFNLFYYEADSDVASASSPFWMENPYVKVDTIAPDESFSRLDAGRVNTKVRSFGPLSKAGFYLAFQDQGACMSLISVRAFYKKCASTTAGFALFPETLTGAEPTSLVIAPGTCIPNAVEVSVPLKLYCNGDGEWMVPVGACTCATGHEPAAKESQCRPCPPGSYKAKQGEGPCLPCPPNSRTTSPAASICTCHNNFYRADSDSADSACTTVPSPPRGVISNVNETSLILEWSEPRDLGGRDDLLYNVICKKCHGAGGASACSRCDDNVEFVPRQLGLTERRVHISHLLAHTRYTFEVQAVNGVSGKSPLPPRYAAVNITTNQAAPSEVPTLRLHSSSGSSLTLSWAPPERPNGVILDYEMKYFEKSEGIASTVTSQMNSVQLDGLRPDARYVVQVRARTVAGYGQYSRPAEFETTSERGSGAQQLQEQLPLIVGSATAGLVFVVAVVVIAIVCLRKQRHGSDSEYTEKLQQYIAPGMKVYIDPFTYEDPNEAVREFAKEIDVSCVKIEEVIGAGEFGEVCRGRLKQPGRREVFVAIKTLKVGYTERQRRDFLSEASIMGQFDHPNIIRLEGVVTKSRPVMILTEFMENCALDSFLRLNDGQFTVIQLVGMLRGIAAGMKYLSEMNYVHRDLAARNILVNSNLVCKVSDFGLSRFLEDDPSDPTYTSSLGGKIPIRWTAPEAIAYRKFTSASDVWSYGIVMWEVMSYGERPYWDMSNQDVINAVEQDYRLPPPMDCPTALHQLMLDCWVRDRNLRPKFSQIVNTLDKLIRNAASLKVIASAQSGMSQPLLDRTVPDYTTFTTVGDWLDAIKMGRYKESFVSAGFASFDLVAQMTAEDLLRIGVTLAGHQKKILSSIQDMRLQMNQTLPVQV

[6] = biological target: T6, panel of 374 wild-type kinases (Homo sapiens, UniProt Q00537); conditions: read-out: % Enzyme Activity (relative to DMSO controls), CDK17/cyclin Y (PCTK2)
T6 construct: purchased Reaction Biology Corporation

[7] = biological target: T7, panel of 374 wild-type kinases (Homo sapiens, UniProt Q6P5Z2); conditions: read-out: % Enzyme Activity (relative to DMSO controls), kinase PKN3/PRK3
T7 construct: purchased Reaction Biology Corporation

[8] = biological target: T8, panel of 374 wild-type kinases (Homo sapiens, UniProt Q96PN8); conditions: read-out: % Enzyme Activity (relative to DMSO controls), kinase TSSK3/STK22C
T8 construct: purchased Reaction Biology Corporation
T8 sequence (Q96PN8 1-268): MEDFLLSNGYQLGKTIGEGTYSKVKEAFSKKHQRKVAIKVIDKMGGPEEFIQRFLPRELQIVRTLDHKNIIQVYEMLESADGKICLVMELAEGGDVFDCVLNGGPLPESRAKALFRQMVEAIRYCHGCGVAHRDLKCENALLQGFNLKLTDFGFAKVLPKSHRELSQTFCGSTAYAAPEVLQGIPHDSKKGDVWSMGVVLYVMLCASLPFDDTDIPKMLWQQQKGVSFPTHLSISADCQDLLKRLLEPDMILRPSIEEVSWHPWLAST

[9] = biological target: T9, panel of 374 wild-type kinases (Homo sapiens, UniProt Q96RG2); conditions: read-out: % Enzyme Activity (relative to DMSO controls), kinase PASK
T9 construct: purchased Reaction Biology Corporation

[10] = biological target: T10, panel of 374 wild-type kinases (Homo sapiens, UniProt Q96RR4); conditions: read-out: % Enzyme Activity (relative to DMSO controls), CAMKK2
T10 construct: purchased Reaction Biology Corporation

[11] = biological target: T11, panel of 374 wild-type kinases (Homo sapiens, UniProt Q9Y3S1); conditions: read-out: % Enzyme Activity (relative to DMSO controls), kinase WNK2
T11 construct: purchased Reaction Biology Corporation
T11 sequence (Q9Y3S1 whole entry): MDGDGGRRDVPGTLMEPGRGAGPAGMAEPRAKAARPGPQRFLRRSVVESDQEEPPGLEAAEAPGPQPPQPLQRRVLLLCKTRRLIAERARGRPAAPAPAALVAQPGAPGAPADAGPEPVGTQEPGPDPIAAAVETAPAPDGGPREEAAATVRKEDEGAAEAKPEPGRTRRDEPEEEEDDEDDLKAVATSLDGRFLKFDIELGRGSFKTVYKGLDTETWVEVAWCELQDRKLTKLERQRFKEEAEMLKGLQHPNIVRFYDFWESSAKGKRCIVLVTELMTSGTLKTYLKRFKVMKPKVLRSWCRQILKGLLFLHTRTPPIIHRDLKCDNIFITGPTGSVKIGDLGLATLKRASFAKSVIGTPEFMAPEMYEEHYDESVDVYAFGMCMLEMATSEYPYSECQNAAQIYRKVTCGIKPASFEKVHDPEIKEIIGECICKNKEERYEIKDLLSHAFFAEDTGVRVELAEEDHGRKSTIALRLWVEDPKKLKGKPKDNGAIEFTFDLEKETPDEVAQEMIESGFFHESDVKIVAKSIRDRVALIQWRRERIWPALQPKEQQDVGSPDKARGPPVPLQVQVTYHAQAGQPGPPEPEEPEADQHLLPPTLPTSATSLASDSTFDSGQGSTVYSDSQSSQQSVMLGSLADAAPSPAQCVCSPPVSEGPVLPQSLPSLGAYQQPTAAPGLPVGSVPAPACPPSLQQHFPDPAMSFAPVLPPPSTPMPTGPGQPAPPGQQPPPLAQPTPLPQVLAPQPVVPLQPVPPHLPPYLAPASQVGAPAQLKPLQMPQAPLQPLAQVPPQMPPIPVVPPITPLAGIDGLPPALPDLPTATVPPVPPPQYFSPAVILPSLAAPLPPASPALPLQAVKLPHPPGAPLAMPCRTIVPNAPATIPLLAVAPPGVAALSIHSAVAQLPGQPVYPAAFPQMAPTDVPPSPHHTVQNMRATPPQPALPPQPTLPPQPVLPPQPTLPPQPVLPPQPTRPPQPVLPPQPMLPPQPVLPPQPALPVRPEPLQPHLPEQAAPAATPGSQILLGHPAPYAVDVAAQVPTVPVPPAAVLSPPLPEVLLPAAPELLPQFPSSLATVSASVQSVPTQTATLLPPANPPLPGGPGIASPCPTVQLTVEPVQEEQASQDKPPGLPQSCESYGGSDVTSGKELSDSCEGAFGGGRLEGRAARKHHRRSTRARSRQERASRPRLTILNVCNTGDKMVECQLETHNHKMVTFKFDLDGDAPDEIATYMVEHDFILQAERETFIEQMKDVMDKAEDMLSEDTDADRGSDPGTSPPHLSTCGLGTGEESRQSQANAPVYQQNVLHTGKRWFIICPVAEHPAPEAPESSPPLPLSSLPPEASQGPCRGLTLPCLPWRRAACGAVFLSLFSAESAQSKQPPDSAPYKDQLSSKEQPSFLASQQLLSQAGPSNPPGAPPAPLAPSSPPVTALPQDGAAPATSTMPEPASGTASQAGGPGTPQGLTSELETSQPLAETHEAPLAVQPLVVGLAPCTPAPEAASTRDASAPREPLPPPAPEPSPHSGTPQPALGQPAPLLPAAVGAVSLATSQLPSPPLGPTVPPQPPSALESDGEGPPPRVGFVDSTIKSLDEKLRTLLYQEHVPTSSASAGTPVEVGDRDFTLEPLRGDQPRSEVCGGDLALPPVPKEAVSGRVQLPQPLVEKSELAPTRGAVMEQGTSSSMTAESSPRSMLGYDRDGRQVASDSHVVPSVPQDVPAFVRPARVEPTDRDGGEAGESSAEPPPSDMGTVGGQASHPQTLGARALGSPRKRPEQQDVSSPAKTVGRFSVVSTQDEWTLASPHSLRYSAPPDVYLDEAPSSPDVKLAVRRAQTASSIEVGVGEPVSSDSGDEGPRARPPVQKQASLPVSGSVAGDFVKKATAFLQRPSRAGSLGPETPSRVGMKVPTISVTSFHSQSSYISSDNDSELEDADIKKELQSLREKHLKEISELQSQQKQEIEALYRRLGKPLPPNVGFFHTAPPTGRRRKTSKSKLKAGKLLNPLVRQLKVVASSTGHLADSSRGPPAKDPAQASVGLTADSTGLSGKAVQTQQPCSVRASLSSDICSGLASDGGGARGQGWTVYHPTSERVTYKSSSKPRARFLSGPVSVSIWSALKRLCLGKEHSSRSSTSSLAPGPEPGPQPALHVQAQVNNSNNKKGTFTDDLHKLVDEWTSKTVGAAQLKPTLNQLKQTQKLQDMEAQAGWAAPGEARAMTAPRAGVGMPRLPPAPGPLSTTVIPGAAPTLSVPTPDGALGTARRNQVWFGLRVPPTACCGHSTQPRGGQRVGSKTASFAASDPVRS

T10 sequence (Q96RR4 whole entry): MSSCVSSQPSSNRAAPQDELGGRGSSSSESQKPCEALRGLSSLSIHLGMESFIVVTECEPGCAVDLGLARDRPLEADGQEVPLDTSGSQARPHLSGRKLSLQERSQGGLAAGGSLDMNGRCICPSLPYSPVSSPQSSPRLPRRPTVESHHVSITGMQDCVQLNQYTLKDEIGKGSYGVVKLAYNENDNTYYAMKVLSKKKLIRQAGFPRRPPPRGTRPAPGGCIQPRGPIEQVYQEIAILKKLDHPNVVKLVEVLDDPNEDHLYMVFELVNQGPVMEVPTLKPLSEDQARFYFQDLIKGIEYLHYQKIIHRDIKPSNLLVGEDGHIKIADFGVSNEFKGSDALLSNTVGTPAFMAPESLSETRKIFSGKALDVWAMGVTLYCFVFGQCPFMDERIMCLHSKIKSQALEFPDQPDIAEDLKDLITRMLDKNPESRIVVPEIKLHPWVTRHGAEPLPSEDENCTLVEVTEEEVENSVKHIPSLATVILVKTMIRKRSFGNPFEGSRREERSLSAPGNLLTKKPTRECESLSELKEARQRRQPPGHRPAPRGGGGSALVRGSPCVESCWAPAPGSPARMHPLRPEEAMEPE
T7 sequence (Q6P5Z2 whole entry): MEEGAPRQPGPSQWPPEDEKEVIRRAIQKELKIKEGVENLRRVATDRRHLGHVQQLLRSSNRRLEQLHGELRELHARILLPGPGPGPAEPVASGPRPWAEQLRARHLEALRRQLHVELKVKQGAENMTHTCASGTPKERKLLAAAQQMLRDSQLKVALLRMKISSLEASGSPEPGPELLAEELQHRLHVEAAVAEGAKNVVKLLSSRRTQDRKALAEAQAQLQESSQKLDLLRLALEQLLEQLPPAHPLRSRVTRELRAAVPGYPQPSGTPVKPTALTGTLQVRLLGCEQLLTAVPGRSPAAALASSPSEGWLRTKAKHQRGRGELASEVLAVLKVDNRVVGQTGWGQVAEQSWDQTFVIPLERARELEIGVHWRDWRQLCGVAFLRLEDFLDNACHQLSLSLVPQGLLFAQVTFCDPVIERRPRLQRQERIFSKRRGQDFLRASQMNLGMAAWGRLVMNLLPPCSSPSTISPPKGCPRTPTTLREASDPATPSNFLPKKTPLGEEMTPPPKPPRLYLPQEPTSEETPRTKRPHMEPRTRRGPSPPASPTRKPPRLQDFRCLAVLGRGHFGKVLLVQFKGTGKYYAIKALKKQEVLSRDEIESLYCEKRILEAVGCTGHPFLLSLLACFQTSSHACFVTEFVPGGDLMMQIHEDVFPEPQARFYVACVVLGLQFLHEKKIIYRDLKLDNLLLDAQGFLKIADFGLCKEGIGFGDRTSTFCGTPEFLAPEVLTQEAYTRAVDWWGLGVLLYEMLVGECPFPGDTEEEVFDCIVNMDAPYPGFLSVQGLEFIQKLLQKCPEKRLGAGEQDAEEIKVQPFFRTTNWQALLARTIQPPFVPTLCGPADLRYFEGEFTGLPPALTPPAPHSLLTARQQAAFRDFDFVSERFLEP
T1 sequence (O75582 whole entry): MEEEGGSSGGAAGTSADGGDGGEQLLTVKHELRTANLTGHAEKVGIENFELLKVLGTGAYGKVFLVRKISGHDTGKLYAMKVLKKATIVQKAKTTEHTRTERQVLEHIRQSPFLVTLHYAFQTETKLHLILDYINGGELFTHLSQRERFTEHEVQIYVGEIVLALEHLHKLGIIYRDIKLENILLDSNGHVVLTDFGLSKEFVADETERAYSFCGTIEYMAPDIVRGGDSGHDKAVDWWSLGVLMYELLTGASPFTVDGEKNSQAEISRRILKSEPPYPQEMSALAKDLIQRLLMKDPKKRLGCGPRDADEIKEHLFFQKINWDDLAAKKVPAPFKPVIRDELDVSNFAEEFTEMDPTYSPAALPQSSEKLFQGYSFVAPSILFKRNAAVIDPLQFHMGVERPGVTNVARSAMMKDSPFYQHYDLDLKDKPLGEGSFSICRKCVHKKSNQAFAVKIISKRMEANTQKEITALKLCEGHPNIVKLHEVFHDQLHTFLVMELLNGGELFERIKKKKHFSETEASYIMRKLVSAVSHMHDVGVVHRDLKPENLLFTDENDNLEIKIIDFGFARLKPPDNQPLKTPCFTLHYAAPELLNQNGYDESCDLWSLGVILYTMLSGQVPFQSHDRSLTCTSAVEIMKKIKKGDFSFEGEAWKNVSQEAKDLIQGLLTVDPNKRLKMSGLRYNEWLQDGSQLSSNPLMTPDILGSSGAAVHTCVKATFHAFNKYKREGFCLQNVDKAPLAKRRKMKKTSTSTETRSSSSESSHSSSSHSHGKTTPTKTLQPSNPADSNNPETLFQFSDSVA
T6 sequence (Q00537 whole entry): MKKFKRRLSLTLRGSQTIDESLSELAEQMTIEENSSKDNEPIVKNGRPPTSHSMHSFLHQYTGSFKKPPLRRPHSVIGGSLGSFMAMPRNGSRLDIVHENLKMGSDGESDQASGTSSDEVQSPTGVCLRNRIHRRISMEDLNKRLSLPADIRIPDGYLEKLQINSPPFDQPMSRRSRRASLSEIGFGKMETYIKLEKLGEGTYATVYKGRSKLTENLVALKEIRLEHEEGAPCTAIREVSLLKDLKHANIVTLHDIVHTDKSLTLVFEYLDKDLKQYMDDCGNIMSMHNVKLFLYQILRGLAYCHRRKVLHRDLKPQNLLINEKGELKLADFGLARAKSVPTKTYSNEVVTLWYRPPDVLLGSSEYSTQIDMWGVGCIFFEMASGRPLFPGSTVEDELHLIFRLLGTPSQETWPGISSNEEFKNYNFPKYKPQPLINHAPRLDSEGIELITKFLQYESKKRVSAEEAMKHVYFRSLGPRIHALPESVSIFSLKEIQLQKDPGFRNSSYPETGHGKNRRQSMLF

SMILES | remaining activity at 5 µM [1] [%] | remaining activity at 5 µM [2] [%] | remaining activity at 5 µM [3] [%] | remaining activity at 5 µM [4] [%] | remaining activity at 5 µM [5] [%] | remaining activity at 5 µM [6] [%] | remaining activity at 5 µM [7] [%] | remaining activity at 5 µM [8] [%] | remaining activity at 5 µM [9] [%] | remaining activity at 5 µM [10] [%] | remaining activity at 5 µM [11] [%] | further results
O=C(Nc1cnn(-c2csc(C(=O)NC3COC3)c2)c1)Nc1ccccc1Cl [Compound 17, 4-(4-(3-(2-chlorophenyl)ureido)-1H-pyrazol-1-yl)-N-(oxetan-3-yl)thiophene-2-carboxamide] | 89.5 | 97.8 | 89.5 | 109 | 95.6 | 106 | 92.5 | 97.7 | 96.3 | 91.1 | 96.3 | –
O=C(Nc1cnn(-c2csc(C(=O)NC3COC3)c2)c1)Nc1c(F)cccc1Cl [Compound 25, 4-(4-(3-(2-chloro-6-fluorophenyl)ureido)-1H-pyrazol-1-yl)-N-(oxetan-3-yl)thiophene-2-carboxamide] | 104 | 92 | 104 | 90.8 | 96.5 | 96 | 76.2 | 101 | 99.7 | 81 | 91.9 | –
Cc1sc(C(=O)NC2COC2)cc1-n1cc(NC(=O)Nc2c(F)cccc2Cl)cn1 [Compound 27, 4-(4-(3-(2-chloro-6-fluorophenyl)ureido)-1H-pyrazol-1-yl)-5-methyl-N-(oxetan-3-yl)thiophene-2-carboxamide] | – | – | – | – | – | – | – | – | – | – | – | remaining activity at 10 µM ([1]; 10 uM): 111%; remaining activity at 10 µM ([2]; 10 uM): 137%; remaining activity at 10 µM ([3]; 10 uM): 89.8%; remaining activity at 10 µM ([4]; 10 uM): 75.5%; remaining activity at 10 µM ([5]; 10 uM): 97.2%; remaining activity at 10 µM ([6]; 10 uM): 102%; remaining activity at 10 µM ([7]; 10 uM): 98.6%; remaining activity at 10 µM ([8]; 10 uM): 100%; remaining activity at 10 µM ([9]; 10 uM): 96.1%; remaining activity at 10 µM ([10]; 10 uM): 111%; remaining activity at 10 µM ([11]; 10 uM): 91.1%
